# Test results reported in US20160030415A1, “TREATMENT AND PROPHYLAXIS OF KIDNEY DISEASES” (priority 2013, published 2016).
# Tested on: STZ induced diabetic nephropathy in rats
# Assay: Study 4: HCQ and its combination with Losartan, Telmisartan, Azilsartan and Ramipril, with Glimepiride control
# Assay type: in vivo, Wistar rats
# Conditions: for HDL / TC / TG / GSH / TBARS / Total protein kidney / Creatinine / Total protein / Urea: after 8th week; for Glucose Day1 / Glucose Day14 / Glucose Day28 / Glucose Day42 / Glucose Day56: blood; for GSH / TBARS / Total protein kidney: kidney homogenate; for Creatinine / Total protein / Urea: serum
# Description: The methods described in Terri et al, Diabetes Volume, 1997, 46:1612-1618, and Takashi et al, Jpn J. Pharmacol, 1997, 75, 59-64, were followed for inducing Diabetes in rats by injecting Streptozotocin. The Efficacy of the drugs was tested in two different models, one involving comparison with diabetic control (i.e. Diabetic Rats not treated with any medication) and the other involving comparison with the anti-diabetic control group (i.e. Diabetic rats administered Glimepiride) in two separate studies.
# Wistar rats of either sex weighing 150-200 g were divided randomly into 28 groups consisting of 6 animals each. Diabetes was induced in rats by single administration of streptozotocin (55 mg/kg/i.p) dissolved in 0.1 M-citrate buffer, pH 4.5. Group 1 (normal control) consisted of normal rats that neither received streptozotocin nor any test drug; Group 2 served as Diabetic control; Group 3 was diabetic rats treated with Hydroxychloroquine (35 mg/kg); Group 4 was diabetic rats treated with Hydroxychloroquine (45 mg/kg) and Group 5 was diabetic rats treated with Hydroxychloroquine (70 mg/kg); Group 6 was diabetic rats treated with Losartan (5.5 mg/kg); Group 7 was diabetic rats treated with Losartan (11 mg/kg); Group 8 was diabetic rats treated with combination of Losartan (5.5 mg/kg) and Hydroxychloroquine (45 mg/kg); Group 9 was diabetic rats treated with combination of Losartan (11 mg/kg) and Hydroxychloroquine (35 mg/kg); Group 10 was diabetic rats treated with Ramipril (0.6 mg/kg); Group 11 was diabetic rats treated with Ramipril (0.3 mg/kg); Group 12 was diabetic rats treated with combination of Ramipril (0.6 mg/kg) and Hydroxychloroquine (35 mg/kg); Group 13 was diabetic rats treated with combination of Ramipril (0.3 mg/kg) and Hydroxychloroquine (45 mg/kg); Group 14 was diabetic rats treated with combination of Ramipril (0.6 mg/kg) and Hydroxychloroquine (45 mg/kg); Group 15 was diabetic rats treated with combination of Ramipril (0.3 mg/kg) and Hydroxychloroquine (35 mg/kg); Group 16 was diabetic rats treated with Telmisartan (9.5 mg/kg); Group 17 was diabetic rats treated with Telmisartan (4.5 mg/kg); Group 18 was diabetic rats treated with combination of Telmisartan (9.5 mg/kg) and Hydroxychloroquine (35 mg/kg); Group 19 was diabetic rats treated with combination of Telmisartan (4.5 mg/kg) and Hydroxychloroquine (45 mg/kg); Group 20 was diabetic rats treated with combination of Telmisartan (9.5 mg/kg) and Hydroxychloroquine (45 mg/kg); Group 21 was diabetic rats treated with combination of Telmisartan (4.5 mg/kg) and Hydroxychloroquine (35 mg/kg); Group 22 was diabetic rats treated with Azilsartan (4.5 mg/kg); Group 23 was diabetic rats treated with Azilsartan (2.5 mg/kg); Group 24 was diabetic rats treated with combination of Azilsartan (4.5 mg/kg) and Hydroxychloroquine (35 mg/kg); Group 25 was diabetic rats treated with combination of Azilsartan (2.5 mg/kg) and Hydroxychloroquine (45 mg/kg); Group 26 was diabetic rats treated with combination of Azilsartan (4.5 mg/kg) and Hydroxychloroquine (45 mg/kg); Group 27 was diabetic rats treated with combination of Azilsartan (2.5 mg/kg) and Hydroxychloroquine (35 mg/kg); Group 28 served as Anti-Diabetic control wherein diabetic rats were treated with antidiabetic drug Glimepiride (GLM) (1 mg/kg).
# The study drugs were dissolved/suspended in vehicle and administered orally once a day for eight weeks. The diabetes mellitus induced nephropathy was assessed by estimating the level of serum urea, serum creatinine and total serum protein content after completion of eighth week of study. TBARS, GSH and Total Protein were measured as markers of renal oxidative stress in Kidney Homogenate after completion of eighth week of study. Blood glucose levels were also assessed at weekly interval.
# [1] = dose mg/kg: HCQ 35, LT 5.5, RM 0.3, TL 4.5, AZ 2.5, alone or combined with HCQ 35
# [2] = dose mg/kg: HCQ 45, LT 11, RM 0.6, TL 9.5, AZ 4.5, alone or combined with HCQ 45
SMILES,HDL [1] [mg/dL],TC [1] [mg/dL],TG [1] [mg/dL],HDL [2] [mg/dL],TC [2] [mg/dL],TG [2] [mg/dL],Glucose Day1 [1] [mg/dL],Glucose Day1 [2] [mg/dL],Glucose Day14 [1] [mg/dL],Glucose Day14 [2] [mg/dL],Glucose Day28 [1] [mg/dL],Glucose Day28 [2] [mg/dL],Glucose Day42 [1] [mg/dL],Glucose Day42 [2] [mg/dL],Glucose Day56 [1] [mg/dL],Glucose Day56 [2] [mg/dL],GSH [1] [nM/mg],TBARS [1] [nM/mg],Total protein kidney [1] [µg/mL],GSH [2] [nM/mg],other results
CCOc1nc2cccc(C(=O)O)c2n1Cc1ccc(-c2ccccc2-c2nc(=O)o[nH]2)cc1 [Azilsartan],27.17 ± 1.17,142 ± 2.1,97 ± 5.66,26.67 ± 1.51,141.17 ± 2.32,103 ± 3.9,267.17 ± 12.21,278.5 ± 14.22,215.5 ± 14.01,224.17 ± 17.93,180 ± 8.00,179 ± 7.13,160.67 ± 6.12,158.67 ± 6.77,141 ± 6.924,139.83 ± 4.79,0.86 ± 0.21,0.6 ± 0.11,874.5 ± 21.80,1.26 ± 0.44,TBARS [2]: 0.58 ± 0.14 nM/mg; Total protein kidney [2]: 837.5 ± 20.15 µg/mL; Creatinine [1]: 3.61 ± 0.16 mg/dL; Total protein [1]: 4.76 ± 0.15 g/dL; Urea [1]: 40.83 ± 2.64 mg/dL; Creatinine [2]: 3.44 ± 0.28 mg/dL; Total protein [2]: 4.99 ± 0.25 g/dL; Urea [2]: 41 ± 3.58 mg/dL
CCCCc1nc(Cl)c(CO)n1Cc1ccc(-c2ccccc2-c2nn[nH]n2)cc1 [Losartan],27.5 ± 1.64,143.5 ± 3.39,100 ± 5.4,28.5 ± 2.88,139.83 ± 3.19,98.83 ± 3.66,262.5 ± 25.35,268.67 ± 15.63,211.17 ± 21.48,215.67 ± 18.13,179.33 ± 7.84,178 ± 7.92,161.17 ± 4.71,152.17 ± 7.28,146.33 ± 6.65,139 ± 10.92,0.56 ± 0.23,0.74 ± 0.1,893.33 ± 29.92,0.66 ± 0.23,TBARS [2]: 0.63 ± 0.17 nM/mg; Total protein kidney [2]: 829.67 ± 25.45 µg/mL; Creatinine [1]: 3.36 ± 0.32 mg/dL; Total protein [1]: 4.91 ± 0.2 g/dL; Urea [1]: 39.83 ± 1.72 mg/dL; Creatinine [2]: 3.26 ± 0.38 mg/dL; Total protein [2]: 5.32 ± 0.2 g/dL; Urea [2]: 41 ± 2.53 mg/dL
CCCc1nc2c(C)cc(-c3nc4ccccc4n3C)cc2n1Cc1ccc(-c2ccccc2C(=O)O)cc1 [Telmisartan],26 ± 1.67,138.67 ± 3.93,100.33 ± 5.57,26.83 ± 1.47,141.5 ± 2.88,97.67 ± 6.09,281.83 ± 12.46,275.33 ± 15.45,221.83 ± 12.37,221.5 ± 16.02,181.83 ± 5.04,184.33 ± 8.31,162 ± 9.21,159.83 ± 7.03,139 ± 7.85,141 ± 7.07,0.86 ± 0.06,0.65 ± 0.15,879.17 ± 29.41,0.96 ± 0.11,TBARS [2]: 0.54 ± 0.14 nM/mg; Total protein kidney [2]: 864.5 ± 25.65 µg/mL; Creatinine [1]: 3.68 ± 0.31 mg/dL; Total protein [1]: 4.93 ± 0.23 g/dL; Urea [1]: 42.67 ± 2.5 mg/dL; Creatinine [2]: 3.91 ± 0.15 mg/dL; Total protein [2]: 4.61 ± 0.18 g/dL; Urea [2]: 41.5 ± 2.35 mg/dL
